Measurements reported in patent US20100099614A1, “Antimicrobial Peptides and Methods of Use” (priority 2008, published 2010).
Values after ≈ are worked out from the molar mass of the structure shown. Values joined by “and” are separate entries in the source; they are usually repeats but may differ in a detail not shown here. Identical values can stand only once. Like-named read-outs stand apart in the source and are kept apart here.

Assays:
[1] = Helical structure by circular dichroism spectroscopy; format: physicochemical; settings: 222 nm
Procedure: The mean residue molar ellipticities of peptides were determined by circular dichroism (CD) spectroscopy, using a Jasco J-810 spectropolarimeter (Easton, Md.) at 5° C. under benign (non-denaturing) conditions (50 mM NaH2PO4/Na2HPO4/100 mM KCl, pH 7.0), hereafter referred to as benign buffer, as well as in the presence of an α-helix inducing solvent, 2,2,2-trifluoroethanol, TFE, (50 mM NaH2PO4/Na2HPO4/[…], pH 7.0 buffer/50% TFE). A 10-fold dilution of an approximately […] stock solution of the peptide analogs was loaded into a 0.1 cm quartz cell and its ellipticity scanned from 195 to 250 nm. The values of molar ellipticities of the peptide analogs at a wavelength of 222 nm were used to estimate the relative α-helicity of the peptides.

[2] = tested on: Rhizopus oryzae (AZN 8892)
[3] = tested on: Rhizopus microsporus (clinical isolate)
[4] = tested on: Rhizomucor spp. (clinical isolate)
[5] = tested on: Absidia corymbifera (clinical isolate); settings: mean of 2 sets
[6] = tested on: Mycobacterium tuberculosis strain H37Rv
Interleukin-6 (IL-6) = experiment: Cytokine assay, stimulation of peripheral blood mononuclear cells, ELISA; format: cell-based, human
Procedure: (§1) Isolation of peripheral blood mononuclear cells (PBMCs) from 5 healthy individuals was performed as described elsewhere (108). Briefly, venous blood was drawn into 10 ml tubes containing 0.2 mg of EDTA (Monoject's-Hertogenbosch, NL). The PBMC fraction was obtained by density centrifugation of blood using Ficoll-Paque (Pharmacia Biotech AB, Sweden). […] The PBMCs were incubated in 96-well tissue culture plates (Greiner, Alphen, NL) at a concentration of 5×10^5 cells per well in a total volume of 200 μl, in the presence or absence of a set of stimuli in different experiments. […] After 24 h of incubation, the supernatants were collected and stored at -80° C. until analysis. Interleukin-6 (IL-6) and tumor necrosis factor (TNF) were measured by ELISA according to the manufacturer's protocol ([…], CLB, Amsterdam, NL). […] Agilent Technologies) with a linear AB gradient (0.2% acetonitrile/min) at a flow rate of 2 ml/min, where mobile phase A was 0.1% aqueous TFA in water and B was 0.1% TFA in acetonitrile. The purity of peptides was verified by analytical RP-HPLC. The peptides were further characterized by electrospray mass spectrometry and amino acid analysis.

[7] = tested on: tumor necrosis factor (TNF); experiment: as above; format: cell-based, human
Procedure: as §1

Gram-negative bacteria = experiment: Antibacterial activity (MIC), microtiter dilution; format: cell-based
Procedure: MICs were determined by a standard microtiter dilution method in Mueller Hinton Broth (MHB). Serial dilutions of the 10× compound were added to the microtiter plates in a volume of 10 μL followed by 90 μL of bacteria for an inoculum of 5×10^5 colony-forming units (CFU)/mL. The plates were incubated at 37° C. for 24 h, and the MICs were determined as the lowest peptide concentration that inhibited growth. […]
Alternatively; minimal inhibitory concentrations were determined using a standard microtiter dilution method in a Mueller-Hinton (MH) medium. Briefly, cells were grown overnight at 37° C. in MH broth and diluted in the same medium. Serial dilutions of the peptides were added to the microtiter plates in a volume of 100 μl followed by 10 μl of bacteria for an initial cell concentration of 1×10^5 CFU/ml. Plates were incubated at 37° C. for 24 hours and MICs determined as the lowest peptide concentration that inhibited growth.

human red blood cells = experiment: Hemolytic activity (MHC50/HC50), 18 h microtiter dilution; format: cell-based; settings: for Hemolytic activity Fold (fold improvement in HC50 compared to that of D4): relative to D4
Procedure: Hemoglobin release was determined spectrophotometrically at 570 nm. […] MHC50 was determined by plot the concentration-lysis format.

[8] = peptide concentration 0.01 μg/ml
[9] = peptide concentration 100 μg/ml

For `CC[C@@H](C)[C@@H](NC(=O)[C@@H](C)NC(=O)[C@@H](CCCCN)NC(=O)[C@@H](CC(C)C)NC(=O)[C@@H](C)NC(=O)[C@H](NC(=O)[C@@H](Cc1c[nH]cn1)NC(=O)[C@@H](CC(C)C)NC(=O)[C@H](NC(=O)[C@H](NC(=O)[C@@H](CCCCN)NC(=O)[C@@H](CCCCN)NC(=O)[C@@H](C)NC(=O)[C@@H](CO)NC(=O)[C@@H](CCCCN)NC(=O)[C@@H](Cc1ccccc1)NC(=O)[C@H](NC(=O)[C@@H](CCCCN)NC(=O)[C@@H](CC(C)C)NC(=O)[C@@H](Cc1ccccc1)NC(=O)[C@@H](CO)NC(=O)[C@@H](CCCCN)NC(=O)[C@@H](Cc1c[nH]c2ccccc12)NC(=O)[C@@H](CCCCN)NC(C)=O)[C@H](C)O)[C@H](C)O)C(C)C)[C@H](C)O)C(=O)N[C@H](CO)C(=O)N[C@H](CO)C(N)=O` [D1], the “50% TFE [θ]222 (mean residue molar ellipticity)” value ([1]; benign buffer containing 50% trifluoroethanol) was 34,100 deg cm^2/dmol, the “Benign [θ]222 (mean residue molar ellipticity)” value ([1]; benign conditions (100 mM KCl, 50 mM NaH2PO4/Na2HPO4, pH 7.0)) was 1,150 deg cm^2/dmol and the “MIC B. subtilus C626” value (Gram-positive bacteria; B. subtilus C626, MH medium, 37° C., 24 h) was 32 µg/mL (≈ 10.7 µM). For the same compound, the “MIC B. subtilus C971 ATCC6633” value (Gram-positive bacteria; B. subtilus C971 ATCC6633, MH medium, 37° C., 24 h) was 2 µg/mL (≈ 0.669 µM), the “MIC E. jaecalis C625” value (Gram-positive bacteria; E. jaecalis C625, MH medium, 37° C., 24 h) was 32 µg/mL (≈ 10.7 µM) and the “MIC S. aureus C622 ATCC3923” value (Gram-positive bacteria; S. aureus C622 ATCC3923, MH medium, 37° C., 24 h) was 64 µg/mL (≈ 21.4 µM). The “MIC S. aureus K147” value (Gram-positive bacteria; S. aureus K147, MH medium, 37° C., 24 h) was 64 µg/mL (≈ 21.4 µM), the “MIC S. epidermidis C623” value (Gram-positive bacteria; S. epidermidis C623, MH medium, 37° C., 24 h) was 4 µg/mL (≈ 1.34 µM) and the “Fold improvement in antimicrobial activity (geometric mean data) compared to that of D4, Gram-positive bacteria” value (Gram-positive bacteria; relative to D4) was 0.9 fold. For the same compound, the “MIC GM (geometric mean of the MIC values), Gram-positive bacteria” value (Gram-positive bacteria; six Gram-positive strains) was 18.0 µg/mL, the “R. oryzae MIC50” value ([2]; inhibits 50% of fungal growth) was 18.8 µg/mL and the “R. oryzae MIC90” value ([2]; inhibits 90% of fungal growth) was 25.0 µg/mL. For the same compound, the “R. micosporus MIC50” value ([3]; inhibits 50% of fungal growth) was 6.3 µg/mL, the “R. micosporus MIC90” value ([3]; inhibits 90% of fungal growth) was 12.5 µg/mL and the “GM (geometric mean of the MIC50 values), Zygomycota fungi” value (Zygomycota fungi; four Zygomycota strains) was 9.1 µg/mL. The “Fold improvement in antifungal activity (geometric mean data) compared to that of D4, Zygomycota fungi” value (Zygomycota fungi; relative to D4) was 5.5 fold, the “Rhizomucor spp. MIC50” value ([4]; inhibits 50% of fungal growth) was 4.7 µg/mL and the “Rhizomucor spp. MIC90” value ([4]; inhibits 90% of fungal growth) was 6.3 µg/mL. For the same compound, the “A. corymbifera MIC50” value ([5]; peptide concentration that inhibits 50% of fungal growth) was 12.5 µg/mL, the “A. corymbifera MIC90” value ([5]; peptide concentration that inhibits 90% of fungal growth) was 12.5 µg/mL and the “Anti-tuberculosis activity MIC” value [6] was 70.7 ± 14.8 µg/mL. For the same compound, the “Anti-tuberculosis activity to H37Rv strain Fold (compared to D4)” value [6] was 2.3 fold, the “Anti-tuberculosis activity MIC” value ([6]; H37Rv) was 23.6 ± 5.0 µM and the “Anti-tuberculosis activity to H37Rv strain MIC” value ([6]; H37Rv) was 23.6 µM. The “Anti-tuberculosis activity to H37Rv strain MIC” value ([6]; further experiments, […]) was 70.7 µg/mL, the “fold less active than D4” value (Ascomycota fungi; Ascomycota fungi) was 5 fold and the “Fold improvement in antifungal activity (geometric mean data) compared to that of D4, Ascomycota fungi” value (Ascomycota fungi; relative to D4) was 0.2 fold. The “GM (geometric mean of the MIC50 values), Ascomycota fungi” value (Ascomycota fungi; three Ascomycota strains) was 28.6 µg/mL, the “IL-6 Exp 1” value (Interleukin-6 (IL-6); [8]) was under 3 pg/mL and the “IL-6 Exp 2” value (Interleukin-6 (IL-6); peptide concentration 0.01 μg/ml, Exp 2) was under 3 pg/mL. The “IL-6 Exp 1” value (Interleukin-6 (IL-6); [9]) was under 3 pg/mL, the “TNF Exp 1” value [7, 8] was under 0.015 ng/mL and the “TNF Exp 2” value [7, 8] was under 0.015 ng/mL. For the same compound, the “TNF Exp 1” value ([7]; peptide concentration 1 μg/ml) was under 0.015 ng/mL, the “TNF Exp 2” value ([7]; peptide concentration 1 μg/ml) was under 0.015 ng/mL and the “TNF Exp 1” value [7, 9] was under 0.015 ng/mL. The “TNF Exp 2” value [7, 9] was under 0.015 ng/mL, the “MIC E. coli C498 UB1005” value (Gram-negative bacteria; E. coli C498 UB1005, MH medium, 37° C., 24 h) was 2 µg/mL (≈ 0.669 µM) and the “MIC E. coli C857 DH5a” value (Gram-negative bacteria; E. coli C857 DH5a, MH medium, 37° C., 24 h) was 2 µg/mL (≈ 0.669 µM). For the same compound, the “MIC E. coli UB1005” value (Gram-negative bacteria; E. coli UB1005, MH medium, 37° C., 24 h) was 4 µg/mL (≈ 1.34 µM), the “MIC P. aeruginosa PAO1” value (Gram-negative bacteria; P. aeruginosa PAO1, Mueller-Hinton medium, 37° C., 24 h, four sets of determinations) was 8 µg/mL (≈ 2.68 µM) and the “MIC S. ryphimurium 14208S” value (Gram-negative bacteria; S. ryphimurium 14208S, MH medium, 37° C., 24 h) was 32 µg/mL (≈ 10.7 µM). The “MIC S. ryphimurium C587 14208S” value (Gram-negative bacteria; S. ryphimurium C587 14208S, MH medium, 37° C., 24 h) was 4 µg/mL (≈ 1.34 µM), the “Fold improvement in antimicrobial activity (geometric mean data) compared to that of D4, Gram-negative bacteria” value (Gram-negative bacteria; relative to D4) was 4.5 fold and the “MIC GM (geometric mean of the MIC values), Gram-negative bacteria” value (Gram-negative bacteria; six Gram-negative strains, 128 μg/mL used where no activity at 64 μg/mL) was 5.0 µg/mL. The “Hemolytic activity HC50” value (human red blood cells; further experiments, 50% hemolysis of human red blood cells after 18 h) was 421.5 µg/mL, the “Hemolytic activity Fold (fold improvement in HC50 compared to that of D4)” value (human red blood cells; further experiments) was 120 fold and the “Hemolytic activity HC50” value (human red blood cells; peptide concentration that produces 50% hemolysis of human red blood cells after 18 h, standard microtiter dilution method) was 1000 µg/mL and 1000.0 µg/mL. For the same compound, the “Hemolytic activity Fold (fold improvement in HC50 compared to that of D4)” value (human red blood cells) was 286 fold.
